Measurements: US20080249178A1, “MAGNESIUM COMPOSITIONS AND USES THEREOF FOR INCREASING LIFESPAN” (priority 2007, published 2008)

How the values were obtained:
[1] = Magnesium absorption rate in rats (metabolic cages, urine and feces magnesium by ICP-AES); settings: higher dosage compositions; magnesium chloride in water, magnesium gluconate in skim milk or water comprising 5 weight percent lactose
Experimental: Fifty 3-month old, male Sprague Dawley (SD) rats were divided into five groups of ten rats. Rats of this age and older are considered adult. Each of the rats was placed in a separate metabolic cage equipped with urine- and feces-collecting wells. All of the rats were maintained in a temperature-controlled room (22° C. to 25° C.) with a dark period from 08:00 pm to 08:00 am daily. From day 1 through day 3, each rat was fed daily 15 g of magnesium-free food and de-ionized water. […] The medium was skim milk for Composition 1 and Group 1, milk prepared from powdered milk, by diluting the powdered milk with water to obtain a composition like that of skim milk, for Composition 2 and Group 2, 1% milk cream in water for Composition 3 and Group 3, water comprising 5 weight percent lactose for Composition 4 and Group 4, and water for the Control Composition and Control Group. […]
From day 4 through day 10, urine from each rat was collected daily. The collected urine from each rat was then pooled together and the total volume of the pooled urine from each rat was recorded. The pooled urine from each rat, in an amount of […], was analyzed for magnesium content using an inductively coupled plasma-atomic emission spectrometer (ICP-AES). […] The pooled feces from each rat, in an amount of 0.5 g, were analyzed for magnesium content using an ICP-AES. […]

Sprague Dawley (SD) rats = settings: aging rats, 6 mg/kg MgCl2
Experimental: Twenty 2-month old, male Sprague Dawley (SD) rats were housed in a temperature-controlled room (22° C. to 25° C.) with a dark period from 08:00 pm to 08:00 am daily. […] Over 7 days before the training and trial period began, each rat was handled and habituated to the maze and to Kellogg's Froot Loop cereal.
Each rat underwent a test of one trial, followed by an interval of 10-minutes, followed by another trial, and so on, for a total of 6 trials in one day. In each trial, each rat went through a sample run in the maze, followed by an interval of 15 seconds, followed by a choice run in the maze. In the sample run, the subject rat was forced to go to the left or to the right by the presence of a block, according to a pseudorandom sequence (with an equal number of left turns and right turns, and no more than two consecutive turns in the same direction). As a reward, Froot Loop cereal was available in the food well at the end of the run, regardless of the direction that was taken by virtue of the block. In the choice run, the block that had been present in the preceding sample run was removed, and the rat was allowed to choose to go to the left or to the right. As a reward, Froot Loop cereal was available in the food well at the end of the run, only when the rat had made a “correct choice” by choosing the direction opposite that taken in the preceding sample run. […]
On the first day (designated day 0) of the feeding of the two groups, as just described, each rat underwent a preliminary test of one trial, followed by an interval of 10 minutes, followed by another trial, and so on, for a total of 4 trials in one day. […] In this preliminary test, the choice accuracy level, or ratio of correct choices made, co, to the number of number of trials in the test, no, was determined for each rat. […]
Three groups of animals (young, aging, and magnesium-treated aging rats) were used. […] Spatial working memory was assessed using a T-maze non-matching-to-place task. […] Spatial working memory was first assessed on an elevated T-maze. […]

Sprague-Dawley rats = experiment: Novel object recognition test in rats; assay type: in vivo
Experimental: In this example, the effect of magnesium supplementation on recognition memory was tested. Three groups of rats were used in these experiments: 1) young rats (three months old); aging rats (12-14 months old), and; 3) magnesium-treated aging rats (12-14 months old, diet supplemented with 6 mg/kg MgCl2 from 8 months of age). We used experimentally naive, female, Sprague-Dawley young […], aging (12-14 month old) and […] rats (Charles River) at the beginning of the behavior experiments. They were housed two per cage with continuous access to food and water under a 12:12 light-dark cycle, with light onset at 8:00 a.m. […] All experiments involving animals were approved by the Massachusetts Institute of Technology's and Tsinghua University Committees on Animal Care.
The three groups of rats were tested for recognition memory using an object recognition test with a single exposure to the object during training. The task is based on the natural tendency of rodents to explore new objects and tests the animals' memory capacity for distinguishing novel versus familiar objects.
Briefly, the rats were first individually habituated to the personnel and then to open-field arena during 2 weeks. […] The retention intervals were 10 min and 24 hours. Objects were cleaned thoroughly between trials with 20% ethanol solution to ensure the absence of olfactory cues. The particular objects for a given trial were randomly determined, but each object was used for only one trial per rat. Memory of the familiar object is associated with increased exploration of the new object and an exploration index (% correct) is calculated as new object inspection time/30.
In this example, the effect of magnesium supplementation on memory consolidation was studied. […]
Briefly, the rats were first individually habituated to the personnel and then to open-field arena during 2 weeks. […] The particular objects for a given trial were randomly determined, but each object was used for only one trial per rat. […]

[2] = diabetic patients, nearly 1 g of magnesium daily for 1 month; cited from earlier work
[3] = test system: young (9-month old) and aged (25-month old) rats; settings: food containing 2% magnesium oxide for 8 days, cited from earlier work
[4] = test system: mice that were genetically altered to present symptoms of Alzheimer's disease (AD); experiment: Modified Morris water maze in AD mice; assay type: in vivo; settings: AD mice aged 13 months
Experimental: Another group, the control group, of 10 mice that were genetically altered to present symptoms of AD were fed a Control Diet, a diet of normal solid food and water, for 30 days.
The pool used was a pool of water in a circular metal tank (150 cm in diameter and 50 cm in depth) having a water height of 30 cm and a water temperature that was maintained at ˜22° C. The pool was placed in a moderately lit area and surrounded by a black curtain. An acrylic platform (15 cm in diameter) was placed 2 cm below the surface of the water in the middle of one quadrant of the pool, equidistant from the center and the edge of the pool. Outside the pool, a cue was placed so as to be visible to a mouse in the maze, allowing a mouse to use it as a landmark for spatial orientation. The cue remained unchanged throughout the test period.
On the first day of the training and testing period, the water in the pool was transparent, such that the platform was visible. Each mouse was trained to swim towards the platform and to stand on the platform so as not to be submerged in the pool. […] The amount of time the mouse took to find the platform, referred to as “escape latency,” was recorded for each trial.
On the second day of the training and testing period, a small quantity of milk was added to the water in the pool, such that the pool was opaque and the platform was no longer visible. […]

Structure (SMILES): [Cl-].[Cl-].[Mg+2] [MgCl2, magnesium chloride]
- magnesium absorption rate at relatively high magnesium dosage [1]: less desirable
- spatial working memory performance with increased delay (Sprague Dawley (SD) rats; 2 and 5 min delays (p<0.05)): significantly enhanced the performance of the aging rats
- percentage of correct choices during training (Sprague Dawley (SD) rats; 15 sec delay (p<0.05)): performed significantly better from their first trials
- asymptotic choice accuracy level (Sprague Dawley (SD) rats; after 8 days of training): 94%
- novel object exploration preference (Sprague-Dawley rats; aging rats (12-14 months old), 6 mg/kg MgCl2 from 8 months of age, single exposure, 10 minute retention interval (P<0.0001)): preferentially explored the novel object to the same extent as young rats
- ability to distinguish novel versus familiar objects (Sprague-Dawley rats; aging rats, 6 mg/kg MgCl2, single exposure, after 24 hours): lose there ability to distinguish novel versus familiar objects
- preference for the novel object (Sprague-Dawley rats; aging rats, 6 mg/kg MgCl2, two training sessions, 24-hour retention interval): retained a high level of preference

Structure (SMILES): [O]=[Mg] [magnesium oxide]
- increase of serum magnesium level [2]: about 10%
- metabolic control [2]: only minor improvement in metabolic control
- side-effect [3]: diarrhea and weight loss
- cognitive function ([3]; gain transient): some sign of improvement of cognitive function

Structure (SMILES): CC12CC3CC(C)(C1)CC(N)(C3)C2 [memantine]
- reduction of the effects of AD on learning capacity, compared with aricept [4]: better at reducing the effects of AD on learning capacity than aricept
